Data as given in ChEMBL document CHEMBL5260817, “Polyamine-based analogs and conjugates as antikinetoplastid agents” (Eur J Med Chem, 2017).
“And” between values parts separate entries of the source, which are not always exact repeats. Identical values can stand only once.

Key:
Bacteria [1] = experiment: Inhibition of TryS (unknown origin) at 10 uM relative to control
[2] = target: Glutathione reductase, mitochondrial (Homo sapiens, UniProt P00390); experiment: Inhibition of human glutathione reductase
Glutathione reductase, mitochondrial, sequence (P00390 whole entry): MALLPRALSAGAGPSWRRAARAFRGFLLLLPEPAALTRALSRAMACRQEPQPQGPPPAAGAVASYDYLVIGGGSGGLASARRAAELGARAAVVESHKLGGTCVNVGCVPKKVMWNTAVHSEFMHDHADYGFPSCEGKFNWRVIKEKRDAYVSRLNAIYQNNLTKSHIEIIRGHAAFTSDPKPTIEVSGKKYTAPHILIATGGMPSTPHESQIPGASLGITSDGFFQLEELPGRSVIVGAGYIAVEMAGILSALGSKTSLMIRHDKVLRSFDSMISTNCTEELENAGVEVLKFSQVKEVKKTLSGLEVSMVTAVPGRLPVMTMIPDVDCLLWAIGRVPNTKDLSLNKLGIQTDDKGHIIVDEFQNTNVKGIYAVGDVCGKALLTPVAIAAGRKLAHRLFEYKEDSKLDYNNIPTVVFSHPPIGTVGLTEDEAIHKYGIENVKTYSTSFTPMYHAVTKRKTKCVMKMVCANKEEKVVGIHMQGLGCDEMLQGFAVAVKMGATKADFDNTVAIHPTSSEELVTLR

[3] = Inhibition of TryR (unknown origin) assessed as inhibition constant; design: species or system Bacteria
Bacteria [4] = experiment: Inhibition of TryR (unknown origin) at 10 uM relative to control
Trypanothione reductase [5] = target: T1, Trypanothione reductase (Trypanosoma cruzi, UniProt P28593); experiment: Inhibition of Trypanosoma cruzi TryR expressed in escherichia coli in presence of NADPH
T1 sequence (P28593 whole entry): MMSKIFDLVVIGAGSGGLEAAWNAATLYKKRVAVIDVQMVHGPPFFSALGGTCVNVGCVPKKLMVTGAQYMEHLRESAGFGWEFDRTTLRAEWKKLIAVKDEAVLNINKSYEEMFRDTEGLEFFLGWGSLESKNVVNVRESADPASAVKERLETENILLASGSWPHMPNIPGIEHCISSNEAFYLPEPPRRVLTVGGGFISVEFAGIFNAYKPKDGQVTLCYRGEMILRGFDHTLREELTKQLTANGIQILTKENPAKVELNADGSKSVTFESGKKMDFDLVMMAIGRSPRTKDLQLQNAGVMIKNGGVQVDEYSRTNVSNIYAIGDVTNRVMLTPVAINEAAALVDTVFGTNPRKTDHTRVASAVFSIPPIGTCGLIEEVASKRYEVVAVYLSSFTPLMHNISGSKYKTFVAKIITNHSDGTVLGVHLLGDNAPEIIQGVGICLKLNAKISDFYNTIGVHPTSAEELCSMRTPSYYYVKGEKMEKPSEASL

Leishmania donovani [6] = experiment: Antiprotozoal activity against Leishmania donovani MHOM/SD/00/1S-2D strain promastigotes assessed as parasitic death; type: functional, organism-based
Leishmania donovani [7] = experiment: Antiprotozoal activity against Leishmania donovani MHOM/SD/00/1S-2D strain promastigotes assessed as parasitic death at 10 uM relative to control; type: functional
Leishmania amazonensis [8] = experiment: Antiprotozoal activity against Leishmania amazonensis promastigotes measured after 48 hrs by MTT assay; type: functional, organism-based
[9] = Inhibition of Trypanosoma brucei MetRS
Trypanosoma brucei [10] = experiment: Antiprotozoal activity against Trypanosoma brucei; type: functional, organism-based
[11] = tested on: Trypanosoma brucei rhodesiense; experiment: Antiprotozoal activity against Trypanosoma brucei rhodesiense; type: functional, organism-based
Leishmania donovani [12] = experiment: Antiprotozoal activity against Leishmania donovani promastigotes; type: functional, organism-based
Trypanothione reductase [13] = target: T1, Trypanothione reductase; experiment: Inhibition of Trypanosoma cruzi TryR
Trypanosoma brucei [14] = experiment: Trypanocidal activity against Trypanosoma brucei K 243 strain; type: functional, organism-based
Trypanothione reductase [15] = target: T2, Trypanothione reductase (Trypanosoma brucei brucei, UniProt P39051); experiment: Inhibition of Trypanosoma brucei TryR assessed as inhibition constant
T2 sequence (P39051 whole entry): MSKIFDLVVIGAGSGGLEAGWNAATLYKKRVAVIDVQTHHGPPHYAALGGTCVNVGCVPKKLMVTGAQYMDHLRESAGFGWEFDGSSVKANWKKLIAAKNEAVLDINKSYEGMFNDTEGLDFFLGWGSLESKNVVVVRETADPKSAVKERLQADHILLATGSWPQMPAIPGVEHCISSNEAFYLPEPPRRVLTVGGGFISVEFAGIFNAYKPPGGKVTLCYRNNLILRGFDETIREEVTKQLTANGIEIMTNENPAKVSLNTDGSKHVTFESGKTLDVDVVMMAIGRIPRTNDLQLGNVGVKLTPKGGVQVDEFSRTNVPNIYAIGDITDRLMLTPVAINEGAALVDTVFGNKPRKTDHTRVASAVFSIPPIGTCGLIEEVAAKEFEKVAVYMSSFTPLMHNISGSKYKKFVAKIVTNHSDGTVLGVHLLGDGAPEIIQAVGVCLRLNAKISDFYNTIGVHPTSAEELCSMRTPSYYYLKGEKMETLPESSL

Trypanosoma brucei [16] = experiment: Trypanocidal activity against Trypanosoma brucei Lab 110 strain; type: functional, organism-based
Trypanosoma brucei [17] = experiment: Trypanocidal activity against Trypanosoma brucei K 269 strain; type: functional, organism-based
Trypanosoma brucei [18] = experiment: Trypanocidal activity against Trypanosoma brucei K 243-As-10-3 strain; type: functional, organism-based
Trypanothione reductase [19] = target: T2, Trypanothione reductase; experiment: Inhibition of Trypanosoma brucei TryR
Trypanothione reductase [20] = target: T1, Trypanothione reductase; experiment: Inhibition of Trypanosoma cruzi TryR assessed as inhibition constant by TR assay
Trypanosoma cruzi [21] = experiment: Antiprotozoal activity against Trypanosoma cruzi epimastigotes; type: functional, organism-based
Trypanothione reductase [22] = target: T1, Trypanothione reductase; experiment: Inhibition of Trypanosoma cruzi TryR assessed as inhibition constant in presence of NADPH
Leishmania donovani [23] = experiment: Antiprotozoal activity against Leishmania donovani; type: functional, organism-based
Trypanosoma cruzi [24] = experiment: Antiprotozoal activity against Trypanosoma cruzi; type: functional, organism-based
Leishmania amazonensis [25] = experiment: Antiprotozoal activity against Leishmania amazonensis measured after 3 days by MTT assay; type: functional, organism-based; settings: 72 h
Leishmania chagasi = experiment: Antiprotozoal activity against Leishmania chagasi measured after 3 days by MTT assay; type: functional, organism-based; settings: 72 h
[26] = tested on: Trypanosoma brucei brucei; experiment: Antiprotozoal activity against Trypanosoma brucei brucei Lab 110 EATRO strain; type: functional, organism-based
Trypanothione reductase [27] = target: T1, Trypanothione reductase; experiment: Inhibition of Trypanosoma cruzi TryR assessed as inhibition constant
Leishmania braziliensis = experiment: Antiprotozoal activity against Leishmania braziliensis MHOM/PE/84/LC26 amastigotes infected in mouse J774.2 cells measured after 72 hrs; type: functional, organism-based; settings: J774.2, 72 h
[28] = tested on: Trypanosoma brucei brucei; experiment: Antiprotozoal activity against Trypanosoma brucei brucei; type: functional, organism-based
Leishmania donovani [29] = experiment: Antiprotozoal activity against Leishmania donovani amastigotes assessed as growth inhibition measured after 7 days relative to control; type: functional; settings: time 7 day

With NCCCCNCCCNC(=O)CN1C(=O)Cc2c([nH]c3ccc(Br)cc23)-c2ccccc21 the inhibition (Bacteria [1]) was 22%.
In the case of CCCCN(CCCC)CCCNC(=O)CCCCC1=C(C)C(=O)c2cccc(O)c2C1=O, the IC50 [2] is reported as greater than 40 µM.
For O=C(Cc1c[nH]c2cc(Br)ccc12)NCCCNCCCCNCCCNC(=O)Cc1c[nH]c2cc(Br)ccc12, the Ki [3] was 0.076 µM and 0.08 µM and the inhibition (Bacteria [4]) was 98%.
O=C1NC(=O)C(c2c[nH]c3ccccc23)=C1NCCCNCCCNC1=C(c2c[nH]c3ccccc23)C(=O)NC1=O showed an IC50 (Trypanothione reductase [5]) greater than 57 µM.
With COc1ccc2nc3cc(Cl)ccc3c(NCCCCNCCCNc3c4ccc(Cl)cc4nc4ccc(OC)cc34)c2c1 the IC50 (Leishmania donovani [6]) was 1 µM and the inhibition at 10 µM (Leishmania donovani [7]) was 90%.
Compound CC(C)=CCC/C(C)=C/CC/C(C)=C/CNCCN has an IC50 (Leishmania amazonensis [8]) of 16.8 µM.
Clc1cc(Cl)c2c(c1)[C@H](NCCCNc1nc3ncccc3[nH]1)CCN2 showed an IC50 [9] of 0.002 µM and an IC50 (Trypanosoma brucei [10]) of 0.0004 µM.
With C(CCCNCCCNCC1CCCCCC1)CCCNCCCNCC1CCCCCC1 the IC50 [11] was 0.16 µM.
In the case of OCCn1c(CNCCCNc2nc3ccccc3[nH]2)cc2c(Cl)cc(Cl)cc21, the IC50 [9] is reported as less than 0.025 µM and the IC50 (Trypanosoma brucei [10]) is reported as 0.001 µM.
Work on COc1cc(CN(CCCN)Cc2ccc(OCc3ccc(Br)cc3)c(OC)c2)ccc1OCc1ccc(Br)cc1 yielded an IC50 (Leishmania donovani [12]) of less than 1 µM.
With CC(C)=CCC/C(C)=C/CC/C(C)=C/CNCCCN the IC50 (Leishmania amazonensis [8]) was 4.9 µM.
For Clc1cc(Cl)cc(CNCCCNc2nc3ncccc3[nH]2)c1, the IC50 [9] was 0.001 µM and the IC50 (Trypanosoma brucei [10]) was 0.004 µM.
With CCCCN(CCCC)CCCNC(=O)CCCC1=C(CCCC(=O)NCCCN(CCCC)CCCC)C(=O)c2c(O)cccc2C1=O the IC50 (Trypanothione reductase [13]) was 0.6 µM.
Compound c1ccc(CCCNCCCNCCCCNCCCNCCCc2ccccc2)cc1 has an IC50 (Trypanosoma brucei [14]) of 1 µM, a Ki (Trypanothione reductase [15]) of 12 µM and an IC50 (Trypanosoma brucei [16]) of 1 µM. For the same compound, the IC50 (Trypanosoma brucei [17]) was 1 µM and the IC50 (Trypanosoma brucei [18]) was 1 µM.
Work on CN1CCN(CCCN2c3ccccc3Sc3ccc(Cl)cc32)CC1 [PROCHLORPERAZINE] yielded an IC50 (Trypanothione reductase [19]) of 7.5 µM.
CN(C)CCNc1cc(Cl)ccc1Sc1ccccc1 gave a Ki (Trypanothione reductase [20]) of 90 µM.
c1ccc2cc(CNCCCCNCCCNCc3ccc4ccccc4c3)ccc2c1 showed an IC50 (Trypanosoma brucei [10]) of 0.19 µM.
For O=C(NCCCCNCCCNC(=O)c1cnc2cc(C(F)(F)F)ccc2c1O)c1cnc2cc(C(F)(F)F)ccc2c1O, the Ki [3] was 0.85 µM.
Work on CCCCCCCCCCNCCCCCCN yielded an IC50 (Trypanosoma cruzi [21]) of 14.3 µM.
CC(=O)NCCCCNCCCNC(C)=O gave a Ki (Trypanothione reductase [22]) greater than 2000 µM.
For NCCCCNCCCNC(=O)C(=O)c1c[nH]c2ccccc12, the IC50 (Leishmania donovani [23]) was greater than 40 µM, the IC50 [11] was greater than 40 µM and the IC50 (Trypanosoma cruzi [24]) was greater than 40 µM.
With CCCCCCCCCCCCNCCCCN the IC50 (Leishmania amazonensis [25]) was 5.13 µM and the IC50 (Leishmania chagasi) was 0.53 µM.
Work on CC(=O)c1ccc(Sc2ccccc2NCCCN(CCCN)CCCCN(CCCN)CCCNc2cc(Cl)ccc2Sc2ccc(C(C)=O)cc2)cc1 yielded a Ki [3] of 0.4 µM.
Compound N=C(N)c1ccc(N2CCCN(c3ccc(C(=N)N)cc3)CC2)cc1 has an IC50 [26] of 0.002 µM.
Work on NCCCCN(CCCN)Cc1ccc2ccccc2c1 yielded a Ki (Trypanothione reductase [27]) greater than 100 µM.
With NCCCN(Cc1ccc(OCc2ccc(Br)cc2)cc1)Cc1ccc(OCc2ccc(Br)cc2)cc1 the IC50 (Leishmania donovani [12]) was less than 1 µM.
Work on CN1CCN(CCC(=O)Nc2cc(Br)ccc2Sc2cccc(NC(=O)CCCC(=O)Nc3cccc(Sc4ccc(Br)cc4NC(=O)CCN4CCN(C)CC4)c3)c2)CC1 yielded an IC50 (Leishmania braziliensis) of 0.55 µM.
For CCCNCCCNC(=O)CNC(=O)[C@H](CC(Br)C(Br)C[C@H](NC(=O)OCc1ccccc1)C(=O)NCC(=O)NCCCNCCC)NC(=O)OCc1ccccc1 (stereo partly specified), the Ki (Trypanothione reductase [27]) was 15.9 µM.
With CC[C@H](C)CNCCCNCCCCCCCNCCCNC[C@@H](C)CC the IC50 [28] was 0.04 µM.
Work on c1ccc(CCCN(CCCCN(CCCc2ccccc2)CCCN(CCCc2ccccc2)CCCc2ccccc2)CCCN(CCCc2ccccc2)CCCc2ccccc2)cc1 yielded an IC50 (Trypanosoma brucei [14]) of 20 µM, an IC50 (Trypanosoma brucei [16]) of 20 µM and an IC50 (Trypanosoma brucei [17]) of 20 µM. For the same compound, the IC50 (Trypanosoma brucei [18]) was 20 µM.
In the case of NCCCN(CCCCN(CCCN)CCCc1ccccc1)CCCc1ccccc1, the IC50 (Trypanosoma brucei [14]) is reported as 0.5 µM, the Ki (Trypanothione reductase [15]) is reported as 3 µM and the IC50 (Trypanosoma brucei [16]) is reported as 0.5 µM. For the same compound, the IC50 (Trypanosoma brucei [17]) was 0.5 µM and the IC50 (Trypanosoma brucei [18]) was 0.5 µM.
With CCN(CCCCN1CN(C(CC(C)C)C(=O)O)CSC1=S)CCCN1CN(C(CC(C)C)C(=O)O)CSC1=S (stereo unspecified) the IC50 (Trypanosoma cruzi [24]) was 3.64 µM.
For COc1cc(CN(CCCN)Cc2ccc(OCc3ccccc3)c(OC)c2)ccc1OCc1ccccc1, the IC50 (Leishmania donovani [12]) was less than 1 µM.
In the case of NCCCNCCCCNCCCNCCCc1ccccc1, the Ki (Trypanothione reductase [27]) is reported as 37 µM.
With CN1CCN(CCCNCCC#N)CC1 the “inhibition (INH)” value (Leishmania donovani [29]) was 80%.
CC(C)(C)OC(=O)N(CCCN)CCCCN showed a Ki (Trypanothione reductase [22]) greater than 2000 µM.
For CC(=O)N(CCCN)CCCCN, the Ki (Trypanothione reductase [22]) was greater than 2000 µM.
